According to PubChem BioAssay AID1963964 (Molecular Pharmacology Branch, DTP, NCI, 2024):

System: 997726-040-R-J2-PDC tumor spheroids, viability
Test: Anticancer human tumor 997726-040-R-J2-PDC patient-derived squamous cell lung carcinoma cell line growth inhibition [PI3K]
Settings: spheroids with HUVEC and MSC; for IC50: curve of first compound; for viability, T/C: stronger effect = lower value
In short: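 Complex 3D spheroids (cancer cells + endothelial HUVEC + mesenchymal stem cells); drug pairs of targeted agent x inavolisib/alpelisib/duvelisib/copanlisib; half-log series from ~Cmax, max 10 microM if Cmax unknown; endpoint viability.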

[1] = second compound 0.0316 µM, first compound 0.0316 µM
[2] = second compound 0.0316 µM, first compound 0.1 µM
[3] = second compound 0.0316 µM, first compound 0.316 µM
[4] = second compound 0.0316 µM, first compound 1 µM
[5] = second compound 0.0316 µM, first compound 3.16 µM
[6] = second compound 0.0316 µM, first compound 10 µM
[7] = second compound 0.1 µM, first compound 0.0316 µM
[8] = second compound 0.1 µM, first compound 0.1 µM
[9] = second compound 0.1 µM, first compound 0.316 µM
[10] = second compound 0.1 µM, first compound 1 µM
[11] = second compound 0.1 µM, first compound 3.16 µM
[12] = second compound 0.1 µM, first compound 10 µM
[13] = second compound 0.316 µM, first compound 0.0316 µM
[14] = second compound 0.316 µM, first compound 0.1 µM
[15] = second compound 0.316 µM, first compound 0.316 µM
[16] = second compound 0.316 µM, first compound 1 µM
[17] = second compound 0.316 µM, first compound 3.16 µM
[18] = second compound 0.316 µM, first compound 10 µM
[19] = second compound 1 µM, first compound 0.0316 µM
[20] = second compound 1 µM, first compound 0.1 µM
[21] = second compound 1 µM, first compound 0.316 µM
[22] = second compound 1 µM, first compound 1 µM
[23] = second compound 1 µM, first compound 3.16 µM
[24] = second compound 1 µM, first compound 10 µM
[25] = second compound 0.00316 µM, first compound 0.0316 µM
[26] = second compound 0.00316 µM, first compound 0.1 µM
[27] = second compound 0.00316 µM, first compound 0.316 µM
[28] = second compound 0.00316 µM, first compound 1 µM
[29] = second compound 0.00316 µM, first compound 3.16 µM
[30] = second compound 0.00316 µM, first compound 10 µM
[31] = second compound 0.01 µM, first compound 0.0316 µM
[32] = second compound 0.01 µM, first compound 0.1 µM
[33] = second compound 0.01 µM, first compound 0.316 µM
[34] = second compound 0.01 µM, first compound 1 µM
[35] = second compound 0.01 µM, first compound 3.16 µM
[36] = second compound 0.01 µM, first compound 10 µM
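Note: spheroids exposed to compounds for seven days before readout.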

C[C@@H](NC(=O)c1ncnc(N)c1Cl)c1ncc(C(=O)Nc2cc(C(F)(F)F)c(Cl)cn2)s1 + Cc1nc(NC(=O)N2CCCC2C(N)=O)sc1-c1ccnc(C(C)(C)C(F)(F)F)c1
IC50 (second compound 0.0316 µM): > 10000 nM
IC50 (second compound 0.1 µM): > 10000 nM
IC50 (second compound 0.316 µM): > 10000 nM
IC50 (second compound 1 µM): 58.9 nM
IC50 (second compound 3.16 µM): < 31.6 nM
IC50 (second compound 10 µM): < 31.6 nM
viability, T/C [1]: 101%
viability, T/C [2]: 115%
viability, T/C [3]: 111%
viability, T/C [4]: 107%
viability, T/C [5]: 102%
viability, T/C [6]: 68.2%
viability, T/C [7]: 96%
viability, T/C [8]: 97.5%
viability, T/C [9]: 99.5%
viability, T/C [10]: 83.9%
viability, T/C [11]: 66.3%
viability, T/C [12]: 60.2%
viability, T/C [13]: 64.7%
viability, T/C [14]: 62.4%
viability, T/C [15]: 66.8%
viability, T/C [16]: 76.3%
viability, T/C [17]: 61.3%
viability, T/C [18]: 47.7%
viability, T/C [19]: 49.4%
viability, T/C [20]: 49.5%
viability, T/C [21]: 45.3%
viability, T/C [22]: 48.6%
viability, T/C [23]: 42.8%
viability, T/C [24]: 35.4%
viability, T/C (second compound 3.16 µM, first compound 0.0316 µM): 36.6%
viability, T/C (second compound 3.16 µM, first compound 0.1 µM): 39.9%
viability, T/C (second compound 3.16 µM, first compound 0.316 µM): 34.5%
viability, T/C (second compound 3.16 µM, first compound 1 µM): 33%
viability, T/C (second compound 3.16 µM, first compound 3.16 µM): 35.9%
viability, T/C (second compound 3.16 µM, first compound 10 µM): 21.2%
viability, T/C (second compound 10 µM, first compound 0.0316 µM): 15%
viability, T/C (second compound 10 µM, first compound 0.1 µM): 15.4%
viability, T/C (second compound 10 µM, first compound 0.316 µM): 18.4%
viability, T/C (second compound 10 µM, first compound 1 µM): 18.8%
viability, T/C (second compound 10 µM, first compound 3.16 µM): 19.6%
viability, T/C (second compound 10 µM, first compound 10 µM): 8.61%

C=CC(=O)N1CCN(c2nc(=O)n(-c3c(C)ccnc3C(C)C)c3nc(-c4c(O)cccc4F)c(F)cc23)C(C)C1 (stereo not drawn) + COc1c(OCCCN2CCOCC2)ccc2c3n(c(=NC(=O)c4cnc(N)nc4)nc12)CCN3
IC50 (second compound 0.00316 µM): > 10000 nM
IC50 (second compound 0.01 µM): > 10000 nM
IC50 (second compound 0.0316 µM): < 31.6 nM
IC50 (second compound 0.1 µM): < 31.6 nM
IC50 (second compound 0.316 µM): < 31.6 nM
IC50 (second compound 1 µM): < 31.6 nM
viability, T/C [25]: 71.2%
viability, T/C [26]: 72.5%
viability, T/C [27]: 85.4%
viability, T/C [28]: 77.6%
viability, T/C [29]: 92.2%
viability, T/C [30]: 96.4%
viability, T/C [31]: 53%
viability, T/C [32]: 57.5%
viability, T/C [33]: 51.2%
viability, T/C [34]: 62.9%
viability, T/C [35]: 63.1%
viability, T/C [36]: 57.1%
viability, T/C [1]: 33.9%
viability, T/C [2]: 36%
viability, T/C [3]: 34.4%
viability, T/C [4]: 40.5%
viability, T/C [5]: 43.2%
viability, T/C [6]: 34.8%
viability, T/C [7]: 28%
viability, T/C [8]: 24.4%
viability, T/C [9]: 25.1%
viability, T/C [10]: 23.3%
viability, T/C [11]: 22.9%
viability, T/C [12]: 21.8%
viability, T/C [13]: 6.57%
viability, T/C [14]: 6.07%
viability, T/C [15]: 5.29%
viability, T/C [16]: 5.93%
viability, T/C [17]: 4.93%
viability, T/C [18]: 4.59%
viability, T/C [19]: 2.71%
viability, T/C [20]: 1.42%
viability, T/C [21]: 1.53%
viability, T/C [22]: 1.33%
viability, T/C [23]: 1.27%
viability, T/C [24]: 1.57%

Cn1nccc1Nc1nccc(-c2ccn(C(CO)c3ccc(Cl)c(F)c3)c(=O)c2)n1 (stereo not drawn) + CC(Nc1ccc2c(c1)OCCn1cc(N3C(=O)OCC3C(F)F)nc1-2)C(N)=O
IC50 (second compound 0.00316 µM): > 10000 nM
IC50 (second compound 0.01 µM): 4670 nM
IC50 (second compound 0.0316 µM): 601 nM
IC50 (second compound 0.1 µM): < 31.6 nM
IC50 (second compound 0.316 µM): < 31.6 nM
IC50 (second compound 1 µM): < 31.6 nM
viability, T/C [25]: 93%
viability, T/C [26]: 75.4%
viability, T/C [27]: 63.5%
viability, T/C [28]: 64.3%
viability, T/C [29]: 55.9%
viability, T/C [30]: 49.4%
viability, T/C [31]: 74.5%
viability, T/C [32]: 72.6%
viability, T/C [33]: 70.2%
viability, T/C [34]: 58.9%
viability, T/C [35]: 58.7%
viability, T/C [36]: 39.6%
viability, T/C [1]: 65.2%
viability, T/C [2]: 57.5%
viability, T/C [3]: 52%
viability, T/C [4]: 47.3%
viability, T/C [5]: 43.9%
viability, T/C [6]: 31.8%
viability, T/C [7]: 44.6%
viability, T/C [8]: 39.5%
viability, T/C [9]: 34.8%
viability, T/C [10]: 32%
viability, T/C [11]: 33.5%
viability, T/C [12]: 23.6%
viability, T/C [13]: 35.5%
viability, T/C [14]: 34.4%
viability, T/C [15]: 30%
viability, T/C [16]: 31%
viability, T/C [17]: 27.9%
viability, T/C [18]: 20%
viability, T/C [19]: 25.7%
viability, T/C [20]: 27.5%
viability, T/C [21]: 23%
viability, T/C [22]: 27%
viability, T/C [23]: 25.1%
viability, T/C [24]: 19.1%

CC(Cn1ccc(-c2ccc(C#N)c(Cl)c2)n1)NC(=O)c1cc(C(C)O)[nH]n1 (stereo not drawn) + COc1c(OCCCN2CCOCC2)ccc2c3n(c(=NC(=O)c4cnc(N)nc4)nc12)CCN3
IC50 (second compound 0.00316 µM): > 10000 nM
IC50 (second compound 0.01 µM): > 10000 nM
IC50 (second compound 0.0316 µM): < 31.6 nM
IC50 (second compound 0.1 µM): < 31.6 nM
IC50 (second compound 0.316 µM): < 31.6 nM
IC50 (second compound 1 µM): < 31.6 nM
viability, T/C [25]: 69.7%
viability, T/C [26]: 67%
viability, T/C [27]: 78.8%
viability, T/C [28]: 78.8%
viability, T/C [29]: 82.3%
viability, T/C [30]: 74%
viability, T/C [31]: 57.3%
viability, T/C [32]: 60.4%
viability, T/C [33]: 59.9%
viability, T/C [34]: 56.1%
viability, T/C [35]: 54.6%
viability, T/C [36]: 54.8%
viability, T/C [1]: 35.7%
viability, T/C [2]: 36.3%
viability, T/C [3]: 41%
viability, T/C [4]: 33.6%
viability, T/C [5]: 37.6%
viability, T/C [6]: 37.2%
viability, T/C [7]: 23%
viability, T/C [8]: 21.4%
viability, T/C [9]: 21.5%
viability, T/C [10]: 24.5%
viability, T/C [11]: 22.6%
viability, T/C [12]: 22.9%
viability, T/C [13]: 4.78%
viability, T/C [14]: 4.57%
viability, T/C [15]: 5.76%
viability, T/C [16]: 6.82%
viability, T/C [17]: 4.57%
viability, T/C [18]: 5.74%
viability, T/C [19]: 1.37%
viability, T/C [20]: 1.18%
viability, T/C [21]: 1.28%
viability, T/C [22]: 1.44%
viability, T/C [23]: 1.61%
viability, T/C [24]: 1.51%
